Assay results taken from the supplement of paper PMC13380429.

Columns and labels:
Details in all cases: 72 h
[1] = tested on: Vero E6; assay: drug sensitivity score (DSS) for viability; higher = more toxic; extreme values may be limits of the assay
[2] = tested on: Calu-3; assay: as above
[3] = tested on: HepG2; assay: as above
[4] = tested on: Caco-2; assay: as above
[5] = tested on: Vero E6; assay: relative viability EC50 (midpoint between 100% and the lowest measured viability); higher = less toxic
[6] = tested on: Calu-3; assay: as above
[7] = tested on: Caco-2; assay: as above
[8] = tested on: Vero E6; assay: cell viability relative to DMSO; higher = less toxic
[9] = tested on: Calu-3; assay: as above
[10] = tested on: HepG2; assay: as above
[11] = tested on: Caco-2; assay: as above
[12] = tested on: U2OS; assay: drug sensitivity score (DSS) for viability; higher = more toxic; extreme values may be limits of the assay
[13] = tested on: U2OS; assay: relative viability EC50 (midpoint between 100% and the lowest measured viability); higher = less toxic
[14] = tested on: HepG2; assay: as above
[15] = tested on: U2OS; assay: cell viability relative to DMSO; higher = less toxic

| Compound | drug sensitivity score [1] | drug sensitivity score [2] | drug sensitivity score [3] | drug sensitivity score [4] | relative viability EC50 [5] | relative viability EC50 [6] | relative viability EC50 [7] | cell viability ([8]; 1 nM) | cell viability ([8]; 10 nM) | cell viability ([8]; 100 nM) | cell viability ([8]; 1000 nM) | cell viability ([8]; 10000 nM) | cell viability ([9]; 1 nM) | cell viability ([9]; 10 nM) | cell viability ([9]; 100 nM) | cell viability ([9]; 1000 nM) | cell viability ([9]; 10000 nM) | cell viability ([10]; 1 nM) | cell viability ([10]; 10 nM) | cell viability ([10]; 100 nM) | cell viability ([10]; 1000 nM) | cell viability ([10]; 10000 nM) | cell viability ([11]; 1 nM) | cell viability ([11]; 10 nM) | cell viability ([11]; 100 nM) | cell viability ([11]; 1000 nM) | cell viability ([11]; 10000 nM) | drug sensitivity score [12] | relative viability EC50 [13] | relative viability EC50 [14] | cell viability ([15]; 1 nM) | cell viability ([15]; 10 nM) | cell viability ([15]; 100 nM) | cell viability ([15]; 1000 nM) | cell viability ([15]; 10000 nM) |
| --- | --- | --- | --- | --- | --- | --- | --- | --- | --- | --- | --- | --- | --- | --- | --- | --- | --- | --- | --- | --- | --- | --- | --- | --- | --- | --- | --- | --- | --- | --- | --- | --- | --- | --- | --- |
| N=C(N)c1ccc(-c2ccc(-c3ccc(C(=N)N)cc3)o2)cc1 [furamidine] | 0 | 0 | 4.1 | 0 | > 10 µM | > 10 µM | > 10 µM | 99.7% | 97.3% | 97.9% | 97.8% | 102% | 92.6% | 104% | 97.1% | 96.4% | 110% | 109% | 97.2% | 96.4% | 79.9% | 59.7% | 97% | 92.8% | 98.1% | 101% | 95% | – | – | – | – | – | – | – | – |
| O=C1NC(=O)C(=Cc2ccc(-c3ccc(F)cc3)o2)S1 (stereo in doubt) | 0.1 | – | 0 | 0 | > 10 µM | – | > 10 µM | 97.7% | 102% | 95.8% | 91.5% | 89.1% | – | – | – | – | – | 104% | 111% | 99.4% | 94% | 100% | 99.2% | 97.9% | 104% | 95.3% | 90.4% | 0 | > 10 µM | > 10 µM | 95.3% | 98.5% | 99.9% | 97.5% | 98.1% |
| NCc1ccccc1CC(=O)N[C@@H]1C(=O)N2C(C(=O)O)=C(CSc3nnnn3CC(=O)O)CS[C@H]12 [ceforanide] | 0 | – | 0 | 0 | > 10 µM | – | > 10 µM | 97.3% | 98% | 96.8% | 93.8% | 103% | – | – | – | – | – | 99.5% | 106% | 109% | 98% | 106% | 88.4% | 92.9% | 102% | 99.3% | 100% | 0 | > 10 µM | > 10 µM | 96.3% | 97.3% | 100% | 102% | 103% |
| Cc1ccc(OCCSc2ncccn2)c(Br)c1 [ZLN024] | 0 | – | 0 | 0 | > 10 µM | – | > 10 µM | 106% | 98.2% | 107% | 102% | 105% | – | – | – | – | – | 105% | 106% | 109% | 99.9% | 110% | 99.2% | 104% | 94.8% | 97% | 102% | 0 | > 10 µM | > 10 µM | 97.8% | 105% | 97.1% | 101% | 101% |
| NCCCCN [putrescine] | 0 | – | 0 | 0.2 | > 10 µM | – | > 10 µM | 104% | 112% | 100% | 98.1% | 90.4% | – | – | – | – | – | 110% | 101% | 110% | 97.3% | 93% | 118% | 102% | 102% | 89% | 93.1% | 0 | > 10 µM | > 10 µM | 99.2% | 97.1% | 97.6% | 93.6% | 96.7% |
| Cc1cc(C)c(S(=O)(=O)n2cc(C)cc2C)c(C)c1 [HJC-0350] | 0 | 0 | – | 0 | > 10 µM | > 10 µM | > 10 µM | 97.5% | 99.5% | 98.6% | 95.5% | 96.2% | 93.7% | 99.4% | 92.9% | 103% | 96.5% | – | – | – | – | – | 95.5% | 98.2% | 93.6% | 96.6% | 93.2% | 0 | > 10 µM | – | 97.4% | 98.2% | 102% | 106% | 93.4% |
| CCc1cccc(CC)c1NC(=O)N1Cc2[nH]nc(NC(=O)c3ccc(N4CCN(C)CC4)cc3)c2C1 | 0 | 2.6 | 5.9 | 1.7 | > 10 µM | – | > 10 µM | 96.9% | 97.5% | 96.9% | 95.9% | 89.3% | 99.1% | 93.4% | 87.6% | 95% | 63% | 102% | 97.5% | 93.9% | 70.5% | 58.3% | 101% | 104% | 98.7% | 91.8% | 76.8% | 4.4 | 2.22 µM | – | 102% | 97.8% | 95.4% | 93.1% | 40% |
| N#Cc1c(N)nc(SCC(N)=O)c(C#N)c1-c1ccc(OCC2CC2)cc1 [BAY-60-6583] | 0 | – | 0 | 0 | > 10 µM | – | > 10 µM | 99.4% | 94.7% | 93.3% | 96.6% | 93.7% | – | – | – | – | – | 102% | 98.1% | 101% | 102% | 92.6% | 104% | 102% | 102% | 95.9% | 99.1% | 0 | > 10 µM | > 10 µM | 106% | 100% | 101% | 98.7% | 99.4% |
| COc1ccc2c(c1)C=C1Cn3c-2c(C2CCCCC2)c2ccc(cc23)C(=O)NS(=O)(=O)N(C)CCOCCN(C)C1=O | 0 | – | 0 | 0 | > 10 µM | – | > 10 µM | 101% | 97.3% | 96.3% | 102% | 95.3% | – | – | – | – | – | 97.3% | 93.5% | 106% | 97% | 105% | 93.7% | 91.1% | 99% | 102% | 94.2% | 0 | > 10 µM | > 10 µM | 102% | 100% | 95.8% | 96.5% | 95.3% |
| O=C(O)c1c(Sc2ccccc2)c2cc(Cl)ccc2n1Cc1ccc(Cl)cc1 [nTZDpa] | 0 | – | 0 | 0 | > 10 µM | – | > 10 µM | 99.6% | 96% | 99.5% | 95.4% | 89.8% | – | – | – | – | – | 96.9% | 92.1% | 96.8% | 97.3% | 90.7% | 97.1% | 97% | 105% | 96.6% | 90.4% | 0 | > 10 µM | > 10 µM | 96.6% | 101% | 92.1% | 96.2% | 101% |
| COc1cc2c(cc1F)C(c1ccccc1Cl)=Nc1c(n[nH]c1C)N2 [RG1530] | 1.1 | 4 | 7.5 | 3.5 | > 10 µM | – | > 10 µM | 101% | 99% | 99.6% | 92.5% | 82.1% | 111% | 100% | 98.7% | 90.5% | 52.8% | 98.5% | 98.5% | 93.9% | 63.2% | 77.6% | 94.8% | 90.8% | 89.1% | 81.4% | 76.1% | 3.1 | – | – | 101% | 95.8% | 99.5% | 85.8% | 68.6% |
| CC(C)(C)n1nc(-c2cccc3ccccc23)c2c(N)ncnc21 [1-naphthyl-PP1] | 0.4 | 1.1 | 0.2 | 0.1 | > 10 µM | – | > 10 µM | 107% | 99% | 103% | 110% | 78.6% | 91.6% | 104% | 98.4% | 100% | 73% | 115% | 115% | 95.6% | 105% | 82.8% | 104% | 93.1% | 98.6% | 101% | 86.1% | 1.7 | > 10 µM | > 10 µM | 100% | 96.4% | 109% | 94.4% | 75.6% |
| CCN(CCCc1ccccc1)CCCc1ccccc1 [alverine] | 0 | – | 1.1 | 0 | > 10 µM | – | > 10 µM | 97.2% | 93.4% | 100% | 97.9% | 100% | – | – | – | – | – | 107% | 87.3% | 96.7% | 98.1% | 76.2% | 101% | 93.6% | 99.2% | 97.8% | 94.8% | 0 | > 10 µM | > 10 µM | 102% | 100% | 101% | 97.8% | 102% |
| O=c1cc[nH]c(=S)[nH]1 [2-thiouracil] | 0 | 0 | – | 0 | > 10 µM | > 10 µM | > 10 µM | 108% | 98.6% | 99.5% | 108% | 93.8% | 102% | 110% | 95.2% | 95.7% | 100% | – | – | – | – | – | 111% | 85.8% | 97.1% | 99% | 102% | 0 | > 10 µM | – | 98.5% | 96.4% | 99.7% | 97.5% | 98.6% |
| CC[N+](CC)(CC)CCOc1ccc(/C=C/c2ccccc2)cc1 [MG-624] | 0 | 0 | 0.7 | 2.3 | > 10 µM | > 10 µM | – | 97.9% | 91% | 88.6% | 97.8% | 97.4% | 101% | 103% | 94.3% | 95.4% | 93.3% | 106% | 102% | 102% | 99.3% | 78.9% | 101% | 100% | 93.6% | 89.3% | 68.7% | 0 | > 10 µM | > 10 µM | 101% | 103% | 100% | 104% | 93% |
